Data: PMC10847043, “Engineered probiotic overcomes pathogen defences using signal interference and antibiotic production to treat infection in mice” (Nature Microbiology, 2024)

System: GAS
Assay: time-dependent killing (bactericidal) assay
Format: cell-based, Streptococcus pyogenes
Conditions: 10× MIC; exponential phase GAS
Description: GAS grown to exponential phase was diluted to 10^5 CFUs ml^−1. […] A 100-µl aliquot was collected at each timepoint, cells were centrifuged and pellets were resuspended in 100 µl phosphate-buffered saline (PBS). Cells were serially diluted and plated on blood agar plates. After overnight incubation at 37 °C, CFUs were enumerated and reported as CFUs ml^−1. […] Bactericidal assays were performed in biological triplicate.

## CC1(C)S[C@@H]2[C@H](NC(=O)Cc3ccccc3)C(=O)N2[C@H]1C(=O)O [penicillin G]
  killing of GAS, in words: complete killing
